Patent publication US12383196B2, “Treatment of depression using machine learning” (The Board of Trustees of the Leland Stanford Junior …, priority 2018, dated 2025)

System: medication-free depressed outpatients
Assay: EMBARC placebo-controlled randomized clinical trial, treatment response on HAMD17
Assay type: in vivo, human
Settings: for response rate (≥50% reduction in symptoms): sertraline arm, 8 weeks, 50-200 mg
Source text: Data were drawn from four studies. Establishment of the treatment-predictive rsEEG signature was accomplished with data from the Establishing Moderators and Biosignatures of Antidepressant Response in Clinic Care (EMBARC) study^21. EMBARC is the largest neuroimaging-coupled placebo-controlled randomized clinical trial (RCT) in depression to date and involved randomization of 309 medication-free depressed outpatients to receive either the selective serotonin reuptake inhibitor (SSRI) sertraline or placebo for eight weeks (FIG. 8). Of these, 228 had high-quality rsEEG data. We then compared the predictive utility of this algorithm against conventional machine learning approaches on the EEG data as well as a predictive model built on clinical data alone. The generalizability of the antidepressant-predictive signature was then tested in a second independent sample of depressed patients (N=72), for whom we had historical information about treatment response during the current depressive episode. A third independent sample of depressed patients (N=24) was used to assess two features of the treatment-predictive rsEEG signature: convergent validity and neurobiological significance. […] We also tested in the third sample whether regions that were prominent in the rsEEG signature reflected individual differences in cortical responsivity, as directly assessed through single pulse transcranial magnetic stimulation (TMS) during concurrent EEG recording. […]
To simply visualize how the SELSER predictions in FIG. 2A could be used for treatment stratification, we partitioned the patients in each arm by applying an arbitrary median split on the cross-validated predicted HAMD17 score changes derived from the sertraline alpha REO model. We then calculated the rates of treatment response (≥50% reduction in symptoms) for the portion of patients above the median (“high”) and below the median (“low”), respectively, based on the model-predicted HAMD17 change scores (FIG. 2E). […]

For `CN[C@H]1CC[C@@H](c2ccc(Cl)c(Cl)c2)c2ccccc21` [sertraline], the efficacy versus placebo (only for patients at the higher range of predicted HAMD17 score changes) was “superior to placebo”, the “response rate (≥50% reduction in symptoms)” value (high group (above median of cross-validated predicted HAMD17 score change, sertraline alpha REO model)) was 65% and the “response rate (≥50% reduction in symptoms)” value (low group (below median of cross-validated predicted HAMD17 score change, sertraline alpha REO model)) was 20%.
